Test results from patent US20170320837A1, “METHOD FOR TREATING INFLAMMATORY DISORDERS” (Synta Pharmaceuticals Corp., priority 2006, published 2017).
pIC50: −log10 of the molar value. “Also recorded” adds a separate entry of the source.

Legend:
glucocorticoid receptor [1] = experiment: Glucocorticoid receptor levels in PBMCs of rats after four days of intravenous dosing, immunoblot; assay type: in vivo, Sprague-Dawley (SD) rats
Experimental: The test compounds were administered daily intravenously via tail vein for four days. […] All rats were sacrificed at the study day 5. About 1-2 mL of blood samples were collected per animal. The blood samples were then pulled together as a group for PBMC isolation.

GR (human recombinant) = biological target: T1, GR (human recombinant) (Homo sapiens, UniProt P04150); experiment: GR competitive assay, fluorescence polarization with Fluormone GS1; assay type: binding; details: tested up to 10 uM
T1 construct: purchased Invitrogen P2816
T1 sequence (P04150 1-777): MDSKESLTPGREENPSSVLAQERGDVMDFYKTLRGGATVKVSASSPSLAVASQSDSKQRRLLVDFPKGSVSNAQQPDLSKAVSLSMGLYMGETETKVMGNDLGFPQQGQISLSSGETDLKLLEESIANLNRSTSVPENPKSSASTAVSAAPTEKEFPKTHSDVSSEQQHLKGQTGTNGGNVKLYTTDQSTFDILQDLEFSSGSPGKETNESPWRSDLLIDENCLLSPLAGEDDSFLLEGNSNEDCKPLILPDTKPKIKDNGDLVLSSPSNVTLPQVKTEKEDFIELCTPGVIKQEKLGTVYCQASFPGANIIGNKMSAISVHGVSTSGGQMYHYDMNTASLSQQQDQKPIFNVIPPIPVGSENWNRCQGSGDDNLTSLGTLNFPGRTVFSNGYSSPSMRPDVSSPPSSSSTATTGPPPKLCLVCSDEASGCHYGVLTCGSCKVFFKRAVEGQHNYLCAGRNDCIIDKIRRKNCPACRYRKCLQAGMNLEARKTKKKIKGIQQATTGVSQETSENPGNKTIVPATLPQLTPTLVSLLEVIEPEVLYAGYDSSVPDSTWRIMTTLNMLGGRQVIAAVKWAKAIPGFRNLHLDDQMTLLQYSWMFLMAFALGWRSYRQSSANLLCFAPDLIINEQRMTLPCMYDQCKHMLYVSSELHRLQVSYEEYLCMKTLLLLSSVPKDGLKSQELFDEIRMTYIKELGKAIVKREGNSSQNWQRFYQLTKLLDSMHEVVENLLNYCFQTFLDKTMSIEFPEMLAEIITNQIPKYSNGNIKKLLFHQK
Experimental: To determine whether the compounds of the invention bind directly to the glucocorticoid receptor, GR competitive assay was performed using a kit from Invitrogen (Cat #P2816). GR (human recombinant) was added to a fluorescent glucocorticoid (Fluormone™ GS1) ligand with a test compound at various concentrations (a serial dilution of the test compound was done on a 96-well plate) and incubated for 2-4 hours in the dark. […] The shift in polarization value in the presence of a test compound was used to determine relative affinity of test compounds for glucocorticoid receptors. The buffer plus Fluormone™ GS1 and glucocorticoid receptor in the absent of s test compound was used as negative control presenting 0% competition. […] The IC50 was calculated based on the inhibition rate of binding activity of the testing compound.

glucocorticoid receptor [2] = experiment: Glucocorticoid receptor levels in rat PBMCs, immunoblot; assay type: cell-based; details: rat PBMCs, 0, 1, 5, 25, or 100 nM, 16 hours
Experimental: (§1) The whole blood samples from healthy human volunteer and male SD rat were collected and the PBMCs were isolated immediately as follows. 5 ml of whole blood was diluted with an equal volume of sterile 1× PBS. The diluted blood was overlayed carefully into a sterile centrifuge tube without disturbing the bottom layer that containing 5 ml of Ficoll-paque plus density gradient solution. The layered blood was centrifuged at 1500×g for 30 minutes at room temperature. The middle thin layer containing PBMCs was carefully removed, transferred to another sterile centrifuge tube, and washed twice with PBS to remove […]. Isolated rat and human PBMCs were cultured in 10% fetal bovine serum/DMEM.
(§2) The rat and human PBMCs were treated with DMSO (control), Compound 226, Compound 287, or 17-DMAG at concentrations of 0, 1, 5, 25, or 100 nM (in DMSO) for 16 hours. The cells were then collected and rinsed in ice-cold PBS and stored in liquid nitrogen until further analysis.
(§3) PBMC were prepared in Western lysis buffer (10 mmol/L HEPES, 42 mmol/L KCl, 5 mmol/L MgCl2, 0.1 mmol/L EDTA, 0.1 mmol/L EGTA, 1 mmol/L DTT, 1% Triton X-100, freshly supplemented with 1× protease inhibitor cocktail from Pierce, Rockford, Ill.). Lysate protein concentrations were quantified by bicinchoninic acid assay (Pierce) and normalized. Equal amounts of protein were loaded onto 10% NuPAGE Bis-Tris Gels (Invitrogen) and subsequently transferred onto polyvinylidene difluoride membranes. The membranes were blocked in 5% milk in TBST. Primary antibody of glucocorticod receptor from Santa Cruz Biotechnology, Inc. was added and incubated at room temperature for 1 hour with shaking. The blots were washed extensively in TBST before secondary antibodies were added for overnight incubation at 4° C. with gentle shaking. The blots were again washed extensively and developed with SuperSignal West Femto substrate (Pierce). The immunoblot analysis was performed to measure the level of total GRs by Quantity One software from Bio-Rad.

human PBMCs = experiment: Production of inflammatory cytokines in stimulated human PBMCs; assay type: cell-based; details: IFN-γ primed PBMCs stimulated with LPS or SAC, 16-18 hrs
Experimental: Human PBMC were isolated using Ficoll 400 and diatrizoate sodium (density 1.077 g/ml) solution and purified with RosetteSep (StemCell Technologies). The PBMCs were primed with human IFN-γ (800 U/ml, Pierce Biotechnology #R-IFNG-50), seeded at 0.5×10^6/100 μL/well in 96-well U-bottom plate with culture medium (RPMI 1640, 10% FBS, 1% Pen/Strep), and incubated in 37° C. for overnight. […] About 180 ul/well of supernatant was collected and measured using ELISA kit or Bio-plex (Bio-Rad) to determine the levels of cytokine production. The cell survival was determined using Cell Counting Kit-8 (Dojindo Molecular Technologies, Inc.). […]

glucocorticoid receptor [3] = experiment: Glucocorticoid receptor levels in human PBMCs, renal cells and cancer cell lines, immunoblot (Example 115); assay type: cell-based
Experimental: Normal human renal proximal tubule epithelial cells and tumor cell lines of MV-4-11, Kasumi-1, and Hela were obtained from Cambrex Bioproducts and American Type Culture Collection, respectively. Cells were cultured with 10% fetal bovine serum/DMEM.
The whole blood samples from healthy human volunteer were collected and the PBMCs were isolated immediately as described in Example 116. Isolated human PBMCs were cultured in 10% fetal bovine serum/DMEM.
as §2, with “Human PBMCs, kasumi-1, My-4-11, Hela,” for “The rat”, “renal proximal tubule epithelial cells” for “PBMCs”, “287,” for “287, or”, “0,” for “0, 1,”
as §3, with “PBMC, renal and tumor cell pellets” for “PBMC”, “0.1. mmol/LEGTA,” for “0.1 mmol/L EGTA,”, “glucocorticoid” for “glucocorticod”, “(Pierce).” for “(Pierce). The immunoblot analysis was performed to measure the level of total GRs by Quantity One software from Bio-Rad.”

glucocorticoid receptor [4] = experiment: Glucocorticoid receptor levels in human PBMCs, immunoblot (Example 114); assay type: cell-based; details: human PBMCs, 0, 1, 5, 25, or 100 nM, 16 hours
Experimental: as §1, §2, §3

glucocorticoid receptors = biological target: T2, glucocorticoid receptors (Homo sapiens, UniProt P04150); experiment: Competitive binding assay with tritium labeled dexamethason in Hela S3 cells (legend of FIG. 3)
T2 construct: endogenous in cells; host or cells: HeLa S3
T2 sequence (P04150 1-777): T1 sequence (P04150 1-777)

## CC(C)c1cc(-c2nnc(O)n2-c2ccc3c(ccn3C)c2)c(O)cc1O [Compound 226, 3-(2,4-dihydroxy-5-isopropyl-phenyl)-4-(1-methyl-indol-5-yl)-5-hydroxy-[1,2,4]triazole]
Glucocorticoid receptor [1]; 50 mg/kg daily intravenously for four days
  size of the decrease of GR expression compared with the other treatments: most significant
Glucocorticoid receptor [1]; daily intravenously for four days, 17-DMAG 6 mg/kg, Paclitaxel 5 mg/kg, Compound 264 80 mg/kg, Compound 226 50 mg/kg
  expression of glucocorticoid receptor (GR) in isolated PBMC compared with vehicle: decreased
GR (human recombinant)
  pIC50: < 5.00
Glucocorticoid receptor [2]
  expression of glucocorticoid receptors: dose dependent decrease; also recorded: decreased the expression of glucocorticoid receptor in a dose dependent manner
Human PBMCs
  inhibition of the production of proinflammatory cytokines: more broadly inhibits the production of proinflammatory cytokines than dexamethasone or 17-DMAG
Glucocorticoid receptor [3]
  suppression of glucocorticoid receptors, cancer cells compared with normal cells: more pronounced in cancer cell than in normal cells
Glucocorticoid receptor [3]; HeLa cells, 0, 5, 25, or 100 nM, 16 hrs
  expression of glucocorticoid receptors: dose dependent decrease
Glucocorticoid receptor [3]; Kasumi-1 AML cancer cells, 0, 5, 25, or 100 nM, 16 hrs
  expression of glucocorticoid receptors: dose dependent decrease
Glucocorticoid receptor [3]; MV-4-11 AML cancer cells, 0, 5, 25, or 100 nM, 16 hrs
  expression of glucocorticoid receptors: dose dependent decrease
Glucocorticoid receptor [3]; cancer cells as well as normal PBMCs and renal cells
  expression of glucocorticoid receptors: suppress the expression of glucocorticoid receptors
Glucocorticoid receptor [3]; human PBMCs, 0, 5, 25, or 100 nM, 16 hrs
  expression of glucocorticoid receptors: dose dependent decrease
Glucocorticoid receptor [3]; human renal cells, 0, 5, 25, or 100 nM, 16 hrs
  expression of glucocorticoid receptors: dose dependent decrease
Glucocorticoid receptor [4]
  expression of glucocorticoid receptors: dose dependent decrease; also recorded: decreased the expression of glucocorticoid receptor in a dose dependent manner
Glucocorticoid receptors
  displacement of tritium labeled dexamethason: did not displace the tritium labeled dexamethason
